How the values were obtained:
Format in all cases: cell-based, rat
[1] = tested on: hypertrophic promoter activity (ANF, NFAT, MEF2, aSkAct, Myb); experiment: hypertrophic promoter-luciferase constructs in H9C2 cells, agonist dose-response survey; conditions: dose-response survey of agonists
Experimental: FIG. 5—H9C2 promoter activity is unresponsive to the adrenergic agonists isoproterenol, norepinephrine and forskolin. H9 cells were transfected with promoter-luciferase contructs as shown and as described in materials and methods. Transfected cells were treated with hypertrophic agonists as shown. Luciferase units were measured and plotted as fraction of untreated control vs concentration of agonist used. Symbols ANF, NFAT, MEF2, aSkAct, and Myb are used as in FIG. 3.
Plasmid constructs used. Gal4 DNA-binding domain constructs were generated by cloning cDNAs encoding constitutively active murine calcineurin (residues 1-398) and full length human MEF-2 into the pBIND expression vector (Promega, Inc.). VP16 fusion constructs were created by cloning full length human MCIP1 and HDAC5 cDNAs into the pACT expression vector (Promega, Inc.). […] Promoter reporter constructs were generated by cloning the promoter regions of ANF, α-skeletal actin, IL-2 (with multiple NFAT binding sites) and myoglobin genes upstream of a promoter-less firefly luciferase open reading frame (pGL3 plasmid, Promega, Inc.). […]
Luciferase measurement. […] Briefly, cells were washed in serum- and phenol red-free medium, then lysed in the presence of luciferase substrate to produce a long half-life “glow” luminescence. Relative light intensity was quantitated on a Fusion Universal Microplate Analyzer (Packard).

MEF-2 reporter = experiment: 3×MEF2 promoter-luciferase reporter in H9C2 cells; conditions: for MEF-2 reporter expression: agonist 100 μM
From the text: Plasmid constructs used. Gal4 DNA-binding domain constructs were generated by cloning cDNAs encoding constitutively active murine calcineurin (residues 1-398) and full length human MEF-2 into the pBIND expression vector (Promega, Inc.). VP16 fusion constructs were created by cloning full length human MCIP1 and HDAC5 cDNAs into the pACT expression vector (Promega, Inc.). In assays, Gal4 and VP16 fusion constructs were cotransfected with pG5-luc reporter (Promega), a firefly luciferase gene under control of a multimerized Gal4 promoter sequence. Promoter reporter constructs were generated by cloning the promoter regions of ANF, α-skeletal actin, IL-2 (with multiple NFAT binding sites) and myoglobin genes upstream of a promoter-less firefly luciferase open reading frame (pGL3 plasmid, Promega, Inc.). Similarly, three consensus MEF-2 binding sites or a single TATA element were cloned into pGL3. HDAC5-GFP construct was a gift from E. Olson, UT Southwestern Medical Center, Dallas Tex.
Cells culture and transient transfections. All muscle cell lines were obtained from the American Type Culture Collection (ATCC). Cells were cultured under conditions recommended by ATCC. Transient transfections were carried out in 96-well plates (5000 cells/well) using the Fugene transfection reagent (Roche), as per manufacturer's instructions. […] Forty-eight hours post-transfection, cells were processed for luciferase measurements.
Adenoviral constructs. Recombinant adenovirus α-skeletal actin-luc, and 3×MEF2-luc were constructed using the Adeasy vector system (Qbiogene) according to manufacturers instructions. Recombinant adenovirus HDAC5 and HDAC5-S259/498A were provided by E. Olson. Recombinant adenovirus MCIPexon4 was provided by S. Williams. Recombinant adenovirus β-galactosidase was from Qbiogene. Cells were plated in 96-well plates, and 24 hr after plating, were infected with recombinant adenovirus at moi of 50 in serum free media for three hrs. Forty-eight hrs after infection, the cells were lysed and luciferase levels were measured as above.
Luciferase measurement. Transiently transfected or adenovirus transfected cells were processed for luciferase activity using the Luc-Lite assay kit (Packard), as per manufacturer's instructions. Briefly, cells were washed in serum- and phenol red-free medium, then lysed in the presence of luciferase substrate to produce a long half-life “glow” luminescence. Relative light intensity was quantitated on a Fusion Universal Microplate Analyzer (Packard).

[2] = tested on: alpha skeletal actin promoter; experiment: alpha skeletal actin promoter-luciferase reporter in H9C2 cells
Experimental: Cells culture and transient transfections. […] Cells were cultured under conditions recommended by ATCC. Transient transfections were carried out in 96-well plates (5000 cells/well) using the Fugene transfection reagent (Roche), as per manufacturer's instructions. […] Forty-eight hours post-transfection, cells were processed for luciferase measurements.
Adenoviral constructs. Recombinant adenovirus α-skeletal actin-luc, and 3×MEF2-luc were constructed using the Adeasy vector system (Qbiogene) according to manufacturers instructions. […] Recombinant adenovirus β-galactosidase was from Qbiogene. Cells were plated in 96-well plates, and 24 hr after plating, were infected with recombinant adenovirus at moi of 50 in serum free media for three hrs. Forty-eight hrs after infection, the cells were lysed and luciferase levels were measured as above.

[3] = recombinant adenovirus infection, moi of 50
[4] = drug added at transfection or expression construct, 48 h

For `CC(C)NCC(O)c1ccc(O)c(O)c1` (centres unmarked) [isoproterenol], the hypertrophic promoter activity [1] was “relatively unaffected”.

With `CNC[C@H](O)c1cccc(O)c1` [phenylephrine] the MEF-2 reporter expression (MEF-2 reporter) was “unaffected”.

`NC[C@H](O)c1ccc(O)c(O)c1` [norepinephrine] was tested, and the hypertrophic promoter activity [1] was “relatively unaffected”.

For `CC[C@H](C)[C@H](NC(=O)[C@H](CC(=O)O)NC(=O)[C@H](CC(C)C)NC(=O)[C@H](Cc1c[nH]cn1)NC(=O)[C@@H]1CSSC[C@H](N)C(=O)N[C@@H](CO)C(=O)N[C@H]2CSSC[C@H](NC(=O)[C@H](CCC(=O)O)NC(=O)[C@H](CCCCN)NC(=O)[C@H](CC(=O)O)NC(=O)[C@H](CCSC)NC(=O)[C@H](CC(C)C)NC(=O)[C@H](CO)NC(=O)[C@H](CO)NC2=O)C(=O)N[C@@H](C(C)C)C(=O)N[C@@H](Cc2ccc(O)cc2)C(=O)N[C@@H](Cc2ccccc2)C(=O)N1)C(=O)N[C@H](C(=O)N[C@@H](Cc1c[nH]c2ccccc12)C(=O)O)[C@@H](C)CC` [endothelin], the MEF-2 reporter expression (MEF-2 reporter) was “unaffected”.

With “HDAC5-S259/498A: mutant of HDAC5 where serine residues 259 and 498 are replaced by alanine; super-repressor of the MEF-2 pathway” the “repression of the 3×MEF2 promoter” value (MEF-2 reporter; [3]) was “most effective repressor” and the “repression of the alpha-skeletal-actin promoter” value [2, 3] was “most effective repressor”.

With “HDAC: anti-hypertrophic gene product HDAC5, MEF-2 inhibitor, expressed by transfection or adenovirus” the “expression of MEF-2 reporter” value (MEF-2 reporter; [4]) was “significantly reduced” and the “expression of alpha skeletal actin reporter” value [2, 4] was “significantly reduced”.

Source: US20030186289A1, “Model cell systems for screening of anti-hypertrophic therapeutics” (Myogen, Inc., priority 2002, published 2003)
